# According to patent publication US12077503B2, “Substituted cyclic amides and their use as herbicides” (FMC CORPORATION, priority 2015, dated 2024):
# Columns and labels:
# Type in all cases: in vivo
# [1] = test system: barnyardgrass (Echinochloa crus-galli); experiment: Test G Pre-Emergence Protocol; details: Echinochloa crus-galli, pre-emergence, 312 h, evaluated after 13 days
# Procedure, shortened: (§1)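 Pots of seeds in standard soil were grown for one day in a glasshouse (24/16 °C day/night, 14 h light, 65% humidity), then sprayed with compound in acetone/water 50:50 with 0.5% Tween 20 at 15.625, 62.5 or 250 g/ha. Damage was scored after 13 days on a 0 (none) to 100 (total) scale.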
# corn (Zea mays) [2] = experiment: Test G Pre-Emergence Protocol; details: Zea mays, pre-emergence, 312 h, evaluated after 13 days
# Procedure, shortened: as §1
# [3] = test system: giant foxtail (Setaria faberi); experiment: Test G Pre-Emergence Protocol; details: Setaria faberi, pre-emergence, 312 h, evaluated after 13 days
# Procedure, shortened: as §1
# [4] = test system: ivy-leaved morning glory (Ipomoea hederacea); experiment: Test G Pre-Emergence Protocol; details: Ipomoea, pre-emergence, 312 h, evaluated after 13 days
# Procedure, shortened: as §1
# [5] = test system: redroot pigweed (Amaranthus retroflexus); experiment: Test G Pre-Emergence Protocol; details: Amaranthus retroflexus, pre-emergence, 312 h, evaluated after 13 days
# Procedure, shortened: as §1
# [6] = test system: velvetleaf (Abutilon theophrasti); experiment: Test G Pre-Emergence Protocol; details: Abutilon theophrasti, pre-emergence, 312 h, evaluated after 13 days
# Procedure, shortened: as §1
# [7] = test system: barnyardgrass (Echinochloa crus-galli); experiment: Test G Post-Emergence Protocol; details: Echinochloa crus-galli, post-emergence, 312 h, read-out: Barnyardgrass damage rating
# Procedure, shortened: (§2)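 Seedlings grown 8 days in soil in a glasshouse (24/16 °C day/night, 14 h light, 65% humidity) were sprayed post-emergence with compound in acetone/water 50:50 plus 0.5% Tween 20 at 15.625, 62.5 or 250 g/ha. Damage was scored after 13 days on a 0–100 scale (100 = total damage).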
# corn (Zea mays) [8] = experiment: Test G Post-Emergence Protocol; details: Zea mays, post-emergence, 312 h, read-out: Corn damage rating
# Procedure, shortened: as §2
# [9] = test system: giant foxtail (Setaria faberi); experiment: Test G Post-Emergence Protocol; details: Setaria faberi, post-emergence, 312 h, read-out: Foxtail, Giant damage rating
# Procedure, shortened: as §2
# [10] = test system: ivy-leaved morning glory (Ipomoea hederacea); experiment: Test G Post-Emergence Protocol; details: Ipomoea, post-emergence, 312 h, read-out: Morningglory, Ivy-leaved damage rating
# Procedure, shortened: as §2
# [11] = test system: redroot pigweed (Amaranthus retroflexus); experiment: Test G Post-Emergence Protocol; details: Amaranthus retroflexus, post-emergence, 312 h, read-out: Pigweed, Redroot damage rating
# Procedure, shortened: as §2
# [12] = test system: velvetleaf (Abutilon theophrasti); experiment: Test G Post-Emergence Protocol; details: Abutilon theophrasti, post-emergence, 312 h, read-out: Velvetleaf damage rating
# Procedure, shortened: as §2
# [13] = 15.625 g ai/ha, evaluated after 13 days (100=total damage to plant; 0=no damage to plant)
# [14] = 62.5 g ai/ha, evaluated after 13 days, 100=total damage to plant, 0=no damage to plant
# [15] = 250 g ai/ha, evaluated after 13 days, 100=total damage to plant, 0=no damage to plant
compound,measurement,setting,value
CN1C[C@@H](c2ccc(C(F)(F)F)cc2)[C@H](C(=O)Nc2ccnc(Cl)c2F)C1=O (racemic) [Compound 1656],pest or weed control at 15.625 g/ha,"[1]; 15.625 g ai/ha, read-out: Barnyardgrass damage rating (100=total damage to plant; 0=no damage to plant)",0%
same,pest or weed control at 62.5 g/ha,"[1]; 62.5 g ai/ha, 100=total damage to plant, 0=no damage to plant, read-out: Barnyardgrass damage rating",0%
same,pest or weed control at 250 g/ha,"[1]; 250 g ai/ha, read-out: Barnyardgrass damage rating (100=total damage to plant; 0=no damage to plant)",20%
same,plant injury at 15.625 g/ha,"corn (Zea mays) [2]; 15.625 g ai/ha, read-out: Corn damage rating (100=total damage to plant; 0=no damage to plant)",0%
same,plant injury at 62.5 g/ha,"corn (Zea mays) [2]; 62.5 g ai/ha, 100=total damage to plant, 0=no damage to plant, read-out: Corn damage rating",0%
same,plant injury at 250 g/ha,"corn (Zea mays) [2]; 250 g ai/ha, read-out: Corn damage rating (100=total damage to plant; 0=no damage to plant)",0%
same,pest or weed control at 15.625 g/ha,"[3]; 15.625 g ai/ha, read-out: Foxtail, Giant damage rating (100=total damage to plant; 0=no damage to plant)",0%
same,pest or weed control at 62.5 g/ha,"[3]; 62.5 g ai/ha, 100=total damage to plant, 0=no damage to plant, read-out: Foxtail, Giant damage rating",0%
same,pest or weed control at 250 g/ha,"[3]; 250 g ai/ha, read-out: Foxtail, Giant damage rating (100=total damage to plant; 0=no damage to plant)",80%
same,pest or weed control at 15.625 g/ha,"[4]; 15.625 g ai/ha, read-out: Morningglory, Ivy-leaved damage rating (100=total damage to plant; 0=no damage to plant)",0%
same,pest or weed control at 62.5 g/ha,"[4]; 62.5 g ai/ha, 100=total damage to plant, 0=no damage to plant, read-out: Morningglory, Ivy-leaved damage rating",20%
same,pest or weed control at 250 g/ha,"[4]; 250 g ai/ha, read-out: Morningglory, Ivy-leaved damage rating (100=total damage to plant; 0=no damage to plant)",0%
same,pest or weed control at 15.625 g/ha,"[5]; 15.625 g ai/ha, read-out: Pigweed, Redroot damage rating (100=total damage to plant; 0=no damage to plant)",0%
same,pest or weed control at 62.5 g/ha,"[5]; 62.5 g ai/ha, 100=total damage to plant, 0=no damage to plant, read-out: Pigweed, Redroot damage rating",0%
same,pest or weed control at 250 g/ha,"[5]; 250 g ai/ha, read-out: Pigweed, Redroot damage rating (100=total damage to plant; 0=no damage to plant)",0%
same,pest or weed control at 15.625 g/ha,"[6]; 15.625 g ai/ha, read-out: Velvetleaf damage rating (100=total damage to plant; 0=no damage to plant)",0%
same,pest or weed control at 62.5 g/ha,"[6]; 62.5 g ai/ha, 100=total damage to plant, 0=no damage to plant, read-out: Velvetleaf damage rating",0%
same,pest or weed control at 250 g/ha,"[6]; 250 g ai/ha, read-out: Velvetleaf damage rating (100=total damage to plant; 0=no damage to plant)",0%
same,pest or weed control at 15.625 g/ha,[7]; [13],10%
same,pest or weed control at 62.5 g/ha,[7]; [14],10%
same,pest or weed control at 250 g/ha,[7]; [15],30%
same,plant injury at 15.625 g/ha,corn (Zea mays) [8]; [13],0%
same,plant injury at 62.5 g/ha,corn (Zea mays) [8]; [14],0%
same,plant injury at 250 g/ha,corn (Zea mays) [8]; [15],0%
same,pest or weed control at 15.625 g/ha,[9]; [13],20%
same,pest or weed control at 62.5 g/ha,[9]; [14],30%
same,pest or weed control at 250 g/ha,[9]; [15],80%
same,pest or weed control at 15.625 g/ha,[10]; [13],0%
same,pest or weed control at 62.5 g/ha,[10]; [14],0%
same,pest or weed control at 250 g/ha,[10]; [15],0%
same,pest or weed control at 15.625 g/ha,[11]; [13],0%
same,pest or weed control at 62.5 g/ha,[11]; [14],20%
same,pest or weed control at 250 g/ha,[11]; [15],30%
same,pest or weed control at 15.625 g/ha,[12]; [13],0%
same,pest or weed control at 62.5 g/ha,[12]; [14],0%
same,pest or weed control at 250 g/ha,[12]; [15],20%
